ChEMBL document CHEMBL1147583, “Respiratory syncytial virus inhibitors. Part 2: Benzimidazol-2-one derivatives” (Bioorg Med Chem Lett, 2004)

Key:
[1] = Therapeutic index expressed as the ratio between CC50 and EC50; assay type: cell-based; settings: human, HEp-2 cells; read-out: Therapeutic index
[2] = test system: HEp-2; experiment: Cytotoxic activity against uninfected HEp-2 human […] epithelial carcinoma cell line; assay type: functional
[3] = test system: HEp-2; experiment: Antiviral activity against respiratory syncytial virus in HEp-2 human […] epithelial carcinoma cell line; assay type: functional, cell-based

Row | Structure (SMILES) | selectivity ratio [1] | CC50 [2] [nM] | EC50 [3] [nM]
1 | CC(C)n1c(=O)n(Cc2nc3ccccc3n2CCCCO)c2ccccc21 | 6210 | 68300 | 11
2 | N#CCCCCn1c(=O)n(Cc2nc3ccccc3n2CCCC#N)c2ccccc21 | > 9090 | > 242000 | 25
3 | CC(C)n1c(=O)n(Cc2nc3ccccc3n2CCC#N)c2ccccc21 | 9190 | 73500 | 8
4 | C=C(C)n1c(=O)n(Cc2nc3ccccc3n2CCCCCC#N)c2ccccc21 | 946 | 12300 | 13
5 | CCn1c(=O)n(Cc2nc3ccccc3n2CCCCO)c2ccccc21 | 11000 | 154000 | 14
6 | CC(C)CCn1c(Cn2c(=O)n(C(=O)Nc3ccccc3)c3ccccc32)nc2ccccc21 | 526 | 21600 | 41
7 | CC(C)CCn1c(Cn2c(=O)n(Cc3ccc(C#N)cc3)c3ccccc32)nc2ccccc21 | 465 | 5590 | 12
8 | C=C(C)n1c(=O)n(Cc2nc3ccccc3n2CCCCCCC#N)c2ccccc21 | > 6000 | 36000 | 6
9 | CCn1c(=O)n(Cc2nc3ccccc3n2CCO)c2ccccc21 | 279 | 64100 | 229
10 | OCCCCn1c(Cn2c(O)nc3ccccc32)nc2ccccc21 | > 971 | > 168000 | 173
11 | CCn1c(=O)n(Cc2nc3ccccc3n2CC(O)c2ccccc2)c2ccccc21 (stereo not given) | > 6500 | > 241000 | 37
12 | CC1(CCn2c(Cn3c(=O)n(Cc4cc(I)c(O)c(I)c4)c4ccccc43)nc3ccccc32)N=N1 | 713 | 27100 | 38
13 | C=C(C)n1c(=O)n(Cc2nc3ccccc3n2CCCS(C)(=O)=O)c2ccccc21 | 4110 | 123000 | 30
14 | C=C(C)n1c(=O)n(Cc2nc3ccccc3n2CCC(C)O)c2ccccc21 (stereo not given) | 6130 | 172000 | 28
15 | CC(C)CCn1c(Cn2c(=O)n(S(=O)(=O)N(C)C)c3ccccc32)nc2ccccc21 | 437 | 27100 | 62
16 | N#CCCn1c(Cn2c(=O)n(-c3ccccc3)c3ccccc32)nc2ccccc21 | 17400 | 87000 | 5
17 | CC(C)CCn1c(Cn2c(O)nc3ccccc32)nc2ccccc21 | 1070 | 61100 | 57
18 | CC(C)CCn1c(Cn2c(=O)n(Cc3ccc(S(=O)(=O)N(C)C)cc3)c3ccccc32)nc2ccccc21 | > 38200 | > 153000 | 4
19 | CCn1c(=O)n(Cc2nc3ccccc3n2CC(=O)c2ccccc2)c2ccccc21 | 241 | 27100 | 112
20 | CC(=O)n1c(=O)n(Cc2nc3ccccc3n2CCC(C)C)c2ccccc21 | 162 | 116000 | 710
21 | CC(C)CCn1c(Cn2c(=O)n(CC#N)c3ccccc32)nc2ccccc21 | 1670 | 46800 | 28
22 | CC(C)n1c(=O)n(Cc2nc3ccccc3n2CCCCCCC#N)c2ccccc21 | > 37800 | > 189000 | 5
23 | C=C(C)n1c(=O)n(Cc2nc3ccccc3n2CCCCO)c2ccccc21 | 42700 | 171000 | 4
24 | CC(C)CCn1c(Cn2c(=O)n(C(=O)NCc3ccccc3)c3ccccc32)nc2ccccc21 | 74 | 6440 | 86
25 | CC(O)CCn1c(Cn2c(O)nc3ccccc32)nc2ccccc21 (stereo not given) | > 629 | > 262000 | 416
26 | CC(=O)CCn1c(Cn2c(O)nc3ccccc32)nc2ccccc21 | 1560 | 299000 | 191
27 | C=C(C)n1c(=O)n(Cc2nc3ccccc3n2CCC#N)c2ccccc21 | 5310 | 79600 | 15

Row | Structure (SMILES) | selectivity ratio [1] | CC50 [2] [nM] | EC50 [3] [nM]
28 | CC(C)CCn1c(Cn2c(=O)n(CCCC#N)c3ccccc32)nc2ccccc21 | 1490 | 59600 | 40
29 | CC(C)CCn1c(Cn2c(=O)n(CCCCCC#N)c3ccccc32)nc2ccccc21 | 536 | 13400 | 25
30 | CC(C)CCn1c(Cn2c(=O)n(CCCCC#N)c3ccccc32)nc2ccccc21 | 428 | 15000 | 35
31 | C=C(C)n1c(=O)n(Cc2nc3ccccc3n2CCCCCCO)c2ccccc21 | > 2170 | > 247000 | 114
32 | CS(=O)(=O)CCCn1c(Cn2c(=O)n(CCCCC#N)c3ccccc32)nc2ccccc21 | > 3020 | > 214000 | 71
33 | CC(C)CCn1c(Cn2c(=O)n(S(C)(=O)=O)c3ccccc32)nc2ccccc21 | 2330 | 16300 | 7
34 | CC(C)CCn1c(Cn2c(=O)n(Cc3ccc(S(C)(=O)=O)cc3)c3ccccc32)nc2ccccc21 | 833 | 7500 | 9
35 | C=C(C)n1c(=O)n(Cc2nc3ccccc3[nH]2)c2ccccc21 | 38 | 28400 | 750
36 | CCn1c(=O)n(Cc2nc3ccccc3n2CCCO)c2ccccc21 | 17900 | 179000 | 10
37 | CCNC(=O)n1c(=O)n(Cc2nc3ccccc3n2CCC(C)C)c2ccccc21 | 359 | 18700 | 52
38 | N#Cc1ccc(Cn2c(=O)n(Cc3nc4ccccc4n3CCCCO)c3ccccc32)cc1 | 739 | 39200 | 53
39 | CS(=O)(=O)CCCn1c(Cn2c(=O)n(CCCCO)c3ccccc32)nc2ccccc21 | > 2490 | > 229000 | 92
40 | CCn1c(=O)n(Cc2nc3ccccc3n2CCC(C)C)c2ccccc21 | 1690 | 18600 | 11
41 | CC(C)CCn1c(Cn2c(=O)n(Cc3ccc(O)cc3)c3ccccc32)nc2ccccc21 | 3330 | 59900 | 18
42 | CC(C)CCn1c(Cn2c(=O)n(Cc3cc(I)c(O)c(I)c3)c3ccccc32)nc2ccccc21 | > 209 | > 144000 | 686
43 | CC(C)CCn1c(Cn2c(=O)n(C(N)=O)c3ccccc32)nc2ccccc21 | 2670 | 134000 | 50
44 | CC(C)CCn1c(Cn2c(=O)n(Cc3ccc(C(=O)N(C)C)cc3)c3ccccc32)nc2ccccc21 | 1270 | 26600 | 21
45 | CCOC(=O)n1c(=O)n(Cc2nc3ccccc3n2CCC(C)C)c2ccccc21 | 193 | 57700 | 298
46 | N#CCCn1c(Cn2c(O)nc3ccccc32)nc2ccccc21 | > 3130 | > 310000 | 99
47 | C=C(C)n1c(=O)n(Cc2nc3ccccc3n2CCC(C)C)c2ccccc21 | 6180 | 24700 | 4
48 | C=C(C)n1c(=O)n(Cc2nc3ccccc3n2CCCC#N)c2ccccc21 | – | – | 5
49 | C=C(C)n1c(=O)n(Cc2nc3ccccc3n2CCC(C)=O)c2ccccc21 | 48900 | 245000 | 5
50 | CS(=O)(=O)CCCn1c(Cn2c(O)nc3ccccc32)nc2ccccc21 | 144 | 216000 | 1490
51 | C=C(C)n1c(=O)n(Cc2nc3ccccc3n2CCCCC#N)c2ccccc21 | 7140 | 193000 | 27
52 | C=CCn1c(=O)n(Cc2nc3ccccc3n2CCC(C)C)c2ccccc21 | 800 | 12800 | 16
53 | CC1(CCn2c(Cn3c(=O)n(Cc4ccc(O)cc4)c4ccccc43)nc3ccccc32)N=N1 | > 28000 | > 220000 | 4
54 | CC(C)CCn1c(Cn2c(=O)n(S(=O)(=O)C(C)C)c3ccccc32)nc2ccccc21 | 260 | 16900 | 65
